Source: ChEMBL document CHEMBL6071160, “Identification of a novel 10-hydroxyevodiamine prodrug as a potent topoisomerase inhibitor with improved aqueous solubility for treatment of hepatocellular carcinoma” (Eur J Med Chem, 2024)

Columns and labels:
[1] = Half life in Sprague-Dawley rat at 10 mg/kg, ip measured upto 24 hrs by LC-MS/MS analysis; type: ADME, organism-based; conditions: in vivo
Huh-7 [2] = assay: Induction of cell cycle arrest in human Huh-7 cells assessed as accumulation of cells at S phase 20 nM measured after 24 hrs by flow cytometric assay (reference value: 23.33%); type: functional
SK-HEP1 [3] = assay: Induction of cell cycle arrest in human SK-HEP1 cells assessed as accumulation of cells at G2 phase 20 nM measured after 24 hrs by flow cytometric assay (reference value: 22.41%); type: functional
Huh-7 [4] = assay: Induction of apoptosis in human Huh-7 cells assessed as necrotic cells at 40 nM measured after 24 hrs by Annexin-V-FITC/PI analysis (reference value: 0.27%); type: functional
SK-HEP1 [5] = assay: Induction of apoptosis in human SK-HEP1 cells assessed as early apoptotic cells at 40 nM measured after 24 hrs by Annexin-V-FITC/PI analysis (reference value: 1.45%); type: functional
Huh-7 [6] = assay: Induction of apoptosis in human Huh-7 cells assessed as ROS generation by measuring DCFH2-DA stained cells at 80 nM measured after 24 hrs […] (reference value: 0.45%); type: functional

Compound: C[N+](C)(C)CCC(=O)Oc1ccc2[nH]c3c(c2c1)CCN1C(=O)c2cc(F)cc(F)c2N(c2cccc(F)c2)C31.[I-] (stereo unspecified)
- half-life [1]: 3.15 h
- Activity (Huh-7 [2]): 27.35%
- Activity (SK-HEP1 [3]): 23.61%
- Activity (Huh-7 [4]): 0.04%
- Activity (SK-HEP1 [5]): 5.11%
- Activity (Huh-7 [6]): 17.92%
